Results as given in ChEMBL document CHEMBL1124164, “Synthesis and estrogen receptor selectivity of 1,1-bis(4-hydroxyphenyl)-2-(p-halophenyl)ethylenes” (J Med Chem, 1988).

Columns and labels:
Estrogen receptor [1] = target: T1, Estrogen receptor (Rattus norvegicus, UniProt P06211+Q62986); experiment: In vitro displacement of [3H]estradiol from estrogen receptor of rat uterine cystol; format: protein assay
Estrogen receptor [2] = target: T1, Estrogen receptor
Description: In vitro displacement of 3 nM [3H]4-hydroxytamoxifen from estrogen receptor of rat uterine cystol

Rattus norvegicus [3] = species: Rattus norvegicus; experiment: Relative recovery of 3H associated with compound from rat uterus; format: ADME, organism-based; details: in vivo
Rattus norvegicus [4] = species: Rattus norvegicus; experiment: Relative recovery of 3H associated with compound from rat Intestinal contents; format: ADME, organism-based; details: in vivo
Rattus norvegicus [5] = experiment: Distribution of radiolabeled compound in liver of rat 4 hr after ip administration of dose; fmol equivalents per 100 mg; format: ADME, organism-based; details: in vivo
Rattus norvegicus [6] = experiment: Distribution of radiolabeled compound in plasma of rat 1 hr after ip administration of dose; format: ADME, organism-based; details: in vivo
Rattus norvegicus [7] = experiment: Distribution of radiolabeled compound in liver of rat 1 hr after iv administration of dose; fmol equivalents per 100 mg; format: ADME, organism-based; details: in vivo
Rattus norvegicus [8] = experiment: Distribution of radiolabeled compound in plasma of rat 4 hr after ip administration of dose; fmol equivalents per 100 mg; format: ADME, organism-based; details: in vivo
Rattus norvegicus [9] = species: Rattus norvegicus; experiment: Effect of Beta Glucuronidase on recovery of 3H associated with compound from rat liver; format: ADME, organism-based; details: in vivo
Rattus norvegicus [10] = species: Rattus norvegicus; experiment: Relative recovery of 3H associated with compound from rat liver; format: ADME, organism-based; details: in vivo
Rattus norvegicus [11] = experiment: Distribution of radiolabeled compound in intestinal contents of rat 8 hr after ip administration of dose; fmol equivalents per 100 mg; format: ADME, organism-based; details: in vivo
Rattus norvegicus [12] = species: Rattus norvegicus; experiment: Effect of Beta Glucuronidase on recovery of 3H associated with compound from rat plasma; format: ADME, organism-based
Rattus norvegicus [13] = experiment: Distribution of radiolabeled compound in liver of rat 1 hr after ip administration of dose and excess 8 microg of estradiol; fmol equivalents per 100 mg; format: ADME, organism-based; details: in vivo
Rattus norvegicus [14] = experiment: Distribution of radiolabeled compound in liver of rat 1 hr after ip administration of dose; fmol equivalents per 100 mg; format: ADME, organism-based; details: in vivo
Rattus norvegicus [15] = species: Rattus norvegicus; experiment: Relative recovery of 3H associated with compound from rat plasma; format: ADME, organism-based
Rattus norvegicus [16] = species: Rattus norvegicus; experiment: Effect of Beta Glucuronidase on recovery of 3H associated with compound from rat intestinal contents; format: ADME, organism-based; details: in vivo
Rattus norvegicus [17] = experiment: Distribution of radiolabeled compound in intestinal contents of rat 1 hr after ip administration of dose and excess 8 microg of estradiol; fmol equivalents per 100 mg; format: ADME, organism-based; details: in vivo
Rattus norvegicus [18] = experiment: Distribution of radiolabeled compound in uterus of rat 1 hr after iv administration of dose; fmol equivalents per 100 mg; format: ADME, organism-based; details: in vivo
Rattus norvegicus [19] = experiment: Distribution of radiolabeled compound in plasma of rat 8 hr after ip administration of dose; fmol equivalents per 100 mg; format: ADME, organism-based; details: in vivo
[20] = target: T2, Estrogen receptor (Rattus norvegicus) (UniProt P06211+Q62986); experiment: Ratio of specific binding to non-specific binding at rat estrogen receptor; format: protein assay
Rattus norvegicus [21] = species: Rattus norvegicus; experiment: Effect of Beta Glucuronidase on recovery of 3H associated with compound from rat uterus; format: ADME, organism-based; details: in vivo
[22] = target: T2, Estrogen receptor (Rattus norvegicus); details: Uterus, Cytosol
Rattus norvegicus [23] = experiment: Distribution of radiolabeled compound in uterus of rat 1 hr after ip administration of dose and excess 8 microg of estradiol; fmol equivalents per 100 mg; format: ADME, organism-based; details: in vivo
Rattus norvegicus [24] = experiment: Distribution of radiolabeled compound in uterus of rat 4 hr after ip administration of dose; fmol equivalents per 100 mg; format: ADME, organism-based; details: in vivo
Rattus norvegicus [25] = experiment: Distribution of radiolabeled compound in uterus of rat 1 hr after ip administration of dose; fmol equivalents per 100 mg; format: ADME, organism-based; details: in vivo
Rattus norvegicus [26] = experiment: Distribution of radiolabeled compound in intestinal contents of rat 4 hr after ip administration of dose; fmol equivalents per 100 mg; format: ADME, organism-based; details: in vivo
Rattus norvegicus [27] = experiment: Distribution of radiolabeled compound in liver of rat 8 hr after ip administration of dose; fmol equivalents per 100 mg; format: ADME, organism-based; details: in vivo
Rattus norvegicus [28] = experiment: Distribution of radiolabeled compound in intestinal contents of rat 1 hr after ip administration of dose; fmol equivalents per 100 mg; format: ADME, organism-based; details: in vivo
Rattus norvegicus [29] = experiment: Distribution of radiolabeled compound in plasma of rat 1 hr after iv administration of dose; fmol equivalents per 100 mg; format: ADME, organism-based; details: in vivo
Rattus norvegicus [30] = experiment: Distribution of radiolabeled compound in intestinal contents of rat 1 hr after iv administration of dose; fmol equivalents per 100 mg; format: ADME, organism-based; details: in vivo
[31] = target: T2, Estrogen receptor (Rattus norvegicus); details: Uterus, Cytosol; remark: listed apart in the source
Description: Non specific binding to estrogen receptor in rat uterine cytosol using unlabeled ligand

Rattus norvegicus [32] = experiment: Distribution of radiolabeled compound in plasma of rat 1 hr after ip administration of dose and excess 8 microg of estradiol; fmol equivalents per 100 mg; format: ADME, organism-based; details: in vivo
Rattus norvegicus [33] = experiment: Distribution of radiolabeled compound in uterus of rat 8 hr after ip administration of dose; fmol equivalents per 100 mg; format: ADME, organism-based; details: in vivo
[34] = target: T2, Estrogen receptor (Rattus norvegicus)
Description: Non specific binding to estrogen receptor in rat uterine cytosol(+/-SD)

[35] = target: T2, Estrogen receptor (Rattus norvegicus); remark: listed apart in the source
[36] = target: T2, Estrogen receptor (Rattus norvegicus); remark: listed apart in the source
Description: Specific binding to estrogen receptor in rat uterine cytosol(+/-SD)

SMILES: Oc1ccc(C(=Cc2ccccc2)c2ccc(O)cc2)cc1
- EC50 (Estrogen receptor [1]): 3.2 nM

SMILES: Oc1ccc(C(=Cc2ccc(I)cc2)c2ccc(O)cc2)cc1
- EC50 (Estrogen receptor [2]): 9.5 nM
- EC50 (Estrogen receptor [1]): 3.3 nM

SMILES: Oc1ccc(C(=C(Cl)c2ccccc2)c2ccc(O)cc2)cc1
- EC50 (Estrogen receptor [1]): 4.5 nM

SMILES: Oc1ccc(C(=Cc2ccc(Br)cc2)c2ccc(O)cc2)cc1
- EC50 (Estrogen receptor [1]): 10.4 nM

SMILES: Oc1ccc(C(=Cc2ccc(F)cc2)c2ccc(O)cc2)cc1
- Recovery (Rattus norvegicus [3]): 84.5%
- Recovery (Rattus norvegicus [4]): 5.3%
- Distribution (Rattus norvegicus [5]): 97 fM/mg
- Distribution (Rattus norvegicus [6]): 122 fM/mg
- Distribution (Rattus norvegicus [7]): 318 fM/mg
- Distribution (Rattus norvegicus [8]): 56 fM/mg
- Recovery (Rattus norvegicus [9]): 75.9%
- Recovery (Rattus norvegicus [10]): 15.7%
- Distribution (Rattus norvegicus [11]): 665 fM/mg
- Recovery (Rattus norvegicus [12]): 92.1%
- Distribution (Rattus norvegicus [13]): 373 fM/mg
- Distribution (Rattus norvegicus [14]): 251 fM/mg
- Recovery (Rattus norvegicus [15]): 28.7%
- Recovery (Rattus norvegicus [16]): 95.4%
- Distribution (Rattus norvegicus [17]): 880 fM/mg
- Distribution (Rattus norvegicus [18]): 429 fM/mg
- Distribution (Rattus norvegicus [19]): 46 fM/mg
- S/N [20]: 3.2
- Recovery (Rattus norvegicus [21]): 95.9%
- Binding [22]: 971 fM uterus-1
- Distribution (Rattus norvegicus [23]): 302 fM/mg
- Distribution (Rattus norvegicus [24]): 196 fM/mg
- EC50 (Estrogen receptor [2]): 170 nM
- Distribution (Rattus norvegicus [25]): 496 fM/mg
- EC50 (Estrogen receptor [1]): 2.9 nM
- Distribution (Rattus norvegicus [26]): 834 fM/mg
- Distribution (Rattus norvegicus [27]): 61 fM/mg
- Distribution (Rattus norvegicus [28]): 2360 fM/mg
- Distribution (Rattus norvegicus [29]): 144 fM/mg
- Distribution (Rattus norvegicus [30]): 3269 fM/mg
- Binding [31]: 305 fM uterus-1
- Distribution (Rattus norvegicus [32]): 198 fM/mg
- Distribution (Rattus norvegicus [33]): 87 fM/mg

SMILES: CCC(=C(c1ccc(O)cc1)c1ccc(OCCN(C)C)cc1)c1ccccc1
- Binding [34]: 475 fM uterus-1
- S/N [35]: 2.3
- Binding [36]: 1080 fM uterus-1
- EC50 (Estrogen receptor [2]): 6 nM
